One may read the Ki as a dissociation constant, usually derived from enzyme kinetics or from competition with a known ligand. A low value points to higher affinity.

The nature of the test: Enzyme NEP Inhibition Assay: The assays were performed in 384-well white opaque plates at 37° C. using the fluorogenic peptide substrates at a concentration of 10 μM in Assay Buffer (NEP: 50 mM HEPES, pH 7.5, 100 mM NaCl, 0.01% polyethylene glycol sorbitan monolaurate (Tween-20), 10 μM ZnSO4; ACE: 50 mM HEPES, pH 7.5, 100 mM NaCl, 0.01% Tween-20, 1 μM ZnSO4). The respective enzymes were used at ….

Description: Enzyme NEP Inhibition Assay: The assays were performed in 384-well white opaque plates at 37° C. using the fluorogenic peptide substrates at a concentration of 10 μM in Assay Buffer (NEP: 50 mM HEPES, pH 7.5, 100 mM NaCl, 0.01% polyethylene glycol sorbitan monolaurate (Tween-20), 10 μM ZnSO4; ACE: 50 mM HEPES, pH 7.5, 100 mM NaCl, 0.01% Tween-20, 1 μM ZnSO4). […] Test compounds were added to the enzymes and incubated for 30 minute at 37° C. prior to initiating the reaction by the addition of substrate.

On to `O=C(O)C(=O)N[C@H](Cc1ccc(-c2ccccc2)cc1)CC(O)C(=O)O` (stereo partly specified), for which the Ki entry is “in the range around 0.0355 µM”.

(Values after ChEMBL document CHEMBL5725865, “Neprilysin inhibitors” (2018).)
